Reference: US20250313572A1, “MACROCYCLIC MCL-1 INHIBITORS AND METHODS OF USE” (AbbVie Inc., priority 2017, published 2025)
Where two headings read alike, the source gives them in different places.

What was measured:
[1] = system: AMO-1 human multiple myeloma tumor cell line; test: AMO-1 cell viability assay (CellTiter-Glo, 24 hours); format: cell-based; settings: Homo sapiens, AMO1, 24 h, read-out: AMO-1 Viability IC50 (μM, 10% FBS), 10% FBS, 24 hours of compound treatment
[2] = system: NCI-H929 human multiple myeloma tumor cell line; test: NCI-H929 cell viability assay (CellTiter-Glo, 24 hours); format: cell-based; settings: Homo sapiens, NCI-H929, 24 h, read-out: H929 Viability IC50 (μM, 10% FBS), 10% FBS, 24 hours of compound treatment
GST-MCL-1 = GST-MCL-1 (Homo sapiens, UniProt Q07820); test: TR-FRET MCL-1 binding assay (competition with probe F-Bak)
In short: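 Displacement of F-Bak from GST-MCL-1 is detected by time-resolved FRET with a Tb-labelled anti-GST antibody, with excitation 340/35 nm and emission 520/525 and 495/510 nm, after 2 hours at room temperature. Compounds were titrated in 11 three-fold steps starting at 25 μM final, in buffer alone or in 10% HS.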

[3] = MCL-1 Binding Ki (nM, 10% HS), in the presence of 10% HS (human serum)
[4] = without HS, read-out: MCL-1 Binding Ki

Chain of GST-MCL-1 (Q07820 whole entry): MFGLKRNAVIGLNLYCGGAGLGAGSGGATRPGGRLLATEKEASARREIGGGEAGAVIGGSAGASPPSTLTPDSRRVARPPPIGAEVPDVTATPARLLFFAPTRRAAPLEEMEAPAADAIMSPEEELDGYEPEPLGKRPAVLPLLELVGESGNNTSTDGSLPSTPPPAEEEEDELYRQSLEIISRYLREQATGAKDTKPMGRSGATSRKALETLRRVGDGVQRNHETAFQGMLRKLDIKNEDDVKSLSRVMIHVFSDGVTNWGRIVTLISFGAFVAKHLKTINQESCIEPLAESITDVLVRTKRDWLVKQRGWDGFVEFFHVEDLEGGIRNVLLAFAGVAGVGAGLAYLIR

Structure (SMILES)	IC50 [1] [µM]	IC50 [2] [µM]	Ki (GST-MCL-1; [3]) [nM]	Ki (GST-MCL-1; [4]) [nM]
COc1ccccc1-c1nccc(COc2ccc3cc2C[C@H](C(=O)O)Oc2ncnc4sc(-c5ccc(F)cc5)c(c24)-c2ccc(c(Cl)c2C)O[C@H](CN2CCN(C[C@H]4O[C@H](OC)[C@@H](OC)[C@@H](OC)[C@@H]4OC)CC2)CO3)n1 [Example 6, methyl 6-(4-{[(7R,16R,21S)-7-carboxy-19-chloro-1-(4-fluorophenyl)-10-{[2-(2-methoxyphenyl)pyrimidin-4-yl]methoxy}-20-methyl-7,8,15,16-tetrahydro-18,21-etheno-13,9-(metheno)-6,14,17-trioxa-2-thia-3,5-diazacyclononadeca[1,2,3-cd]inden-16-yl]methyl}piperazin-1-yl)-6-deoxy-2,3,4-tri-O-methyl-a-D-mannopyranoside]	0.03	0.024	0.221	0.014
COCCOCCO[C@]1(c2nccc(COc3ccc4cc3C[C@H](C(=O)O)Oc3ncnc5sc(-c6ccc(F)cc6)c(c35)-c3c(C)c(Cl)c(c(Cl)c3C)O[C@H](CN3CCN(C)CC3)CO4)n2)CC[C@H](OCC2COCCO2)CC1 (stereo partly drawn) [Example 122, (7R,16R)-19,23-dichloro-10-[(2-{(1s,4s)-4-[(1,4-dioxan-2-yl)methoxy]-1-[2-(2-methoxyethoxy)ethoxy]cyclohexyl}pyrimidin-4-yl)methoxy]-1-(4-fluorophenyl)-20,22-dimethyl-16-[(4-methylpiperazin-1-yl)methyl]-7,8,15,16-tetrahydro-18,21-etheno-9,13-(metheno)-6,14,17-trioxa-2-thia-3,5-diazacyclononadeca[1,2,3-cd]indene-7-carboxylic Acid]	0.00107	0.00277	0.698	0.024
Cc1c(Cl)c2c(Cl)c(C)c1-c1c(-c3ccc(F)cc3)sc3ncnc(c13)O[C@@H](C(=O)O)Cc1cc(ccc1OCc1ccnc(-c3ccc(CCN4CC5COCC5C4)cc3)n1)OC[C@@H](CN1CCN(C)CC1)O2 (stereo partly drawn) [Example 166, (7R,16R)-19,23-dichloro-1-(4-fluorophenyl)-20,22-dimethyl-16-[(4-methylpiperazin-1-yl)methyl]-10-[(2-{4-[2-(tetrahydro-1H-furo[3,4-c]pyrrol-5 (3H)-yl)ethyl]phenyl}pyrimidin-4-yl)methoxy]-7,8,15,16-tetrahydro-18,21-etheno-9,13-(metheno)-6,14,17-trioxa-2-thia-3,5-diazacyclononadeca[1,2,3-cd]indene-7-carboxylic Acid]	0.000927	0.0032	0.058	0.002
COCCOCCOCC1CN(c2nccc(COc3ccc4cc3C[C@@H](C(=O)O)Oc3ncnc5sc(-c6ccc(F)cc6)c(c35)-c3c(C)c(Cl)c(c(Cl)c3C)O[C@H](CN3CCN(C)CC3)CO4)n2)C1 [Example 140, (7S,16R)-19,23-dichloro-1-(4-fluorophenyl)-10-{[2-(3-{[2-(2-methoxyethoxy)ethoxy]methyl}azetidin-1-yl)pyrimidin-4-yl]methoxy}-20,22-dimethyl-16-[(4-methylpiperazin-1-yl)methyl]-7,8,15,16-tetrahydro-18,21-etheno-9,13-(metheno)-6,14,17-trioxa-2-thia-3,5-diazacyclononadeca[1,2,3-cd]indene-7-carboxylic Acid]	0.242	0.244	166	34.9
COCCOCCOCCOCCOCC1(F)CC=C(c2nccc(COc3ccc4cc3C[C@H](C(=O)O)Oc3ncnc5sc(-c6ccc(F)cc6)c(c35)-c3c(C)c(Cl)c(c(Cl)c3C)O[C@H](CN3CCN(C)CC3)CO4)n2)CC1 (single isomer, unassigned) [Example 106, (7R,16R)-19,23-dichloro-10-({2-[(4R*)-4-fluoro-4-(2,5,8,11,14-pentaoxapentadecan-1-yl)cyclohex-1-en-1-yl]pyrimidin-4-yl}methoxy)-1-(4-fluorophenyl)-20,22-dimethyl-16-[(4-methylpiperazin-1-yl)methyl]-7,8,15,16-tetrahydro-18,21-etheno-13,9-(metheno)-6,14,17-trioxa-2-thia-3,5-diazacyclononadeca[1,2,3-cd]indene-7-carboxylic Acid]	0.000216	0.000288	0.166	0.036
